Data set [1] has as its system LNCaP. Kind of data set: Cytotoxicity against human LNCAP cells assessed as reduction in cell viability after 24 hrs by MTT assay. It counts as functional, cell-based.
The test system of data set [2] is Rattus norvegicus. Kind of data set: Anti-androgenic activity in citral-induced benign prostatic hyperplasia Sprague-Dawley rat model assessed as reduction in tissue differentiation into stroma at 10 mg/kg, po qd co-administered with citral for 21 days starting post 8 days of citral alone treatment by hematoxyline and eosin staining based light microscopic analysis. It counts as functional, organism-based.

The subject of data set [3] is Rattus norvegicus. Kind of data set: Anti-androgenic activity in citral-induced benign prostatic hyperplasia Sprague-Dawley rat model assessed as reduction in stromal component at 10 mg/kg, po qd co-administered with citral for 21 days starting post 8 days of citral alone treatment by hematoxyline and eosin staining based light microscopic analysis. The class given is functional, organism-based.

Data set [4] concerns Rattus norvegicus. Kind of data set: Toxicity in benign prostatic hyperplasia Sprague-Dawley rat model assessed as effect on epididymis weight at 10 mg/kg, po qd co-administered with citral for 21 days starting post 8 days of citral alone treatment. It counts as organism-based. Conditions: in vivo.
The subject of data set [5] is LNCaP. Kind of data set: Antiproliferative activity against human LNCAP cells assessed as decrease in cell viability after 24 hrs by MTT assay. It counts as functional, cell-based.
Data set [6] concerns the target T1, Alpha-1A adrenergic receptor (Homo sapiens) (UniProt P35348).
T1 sequence (whole entry): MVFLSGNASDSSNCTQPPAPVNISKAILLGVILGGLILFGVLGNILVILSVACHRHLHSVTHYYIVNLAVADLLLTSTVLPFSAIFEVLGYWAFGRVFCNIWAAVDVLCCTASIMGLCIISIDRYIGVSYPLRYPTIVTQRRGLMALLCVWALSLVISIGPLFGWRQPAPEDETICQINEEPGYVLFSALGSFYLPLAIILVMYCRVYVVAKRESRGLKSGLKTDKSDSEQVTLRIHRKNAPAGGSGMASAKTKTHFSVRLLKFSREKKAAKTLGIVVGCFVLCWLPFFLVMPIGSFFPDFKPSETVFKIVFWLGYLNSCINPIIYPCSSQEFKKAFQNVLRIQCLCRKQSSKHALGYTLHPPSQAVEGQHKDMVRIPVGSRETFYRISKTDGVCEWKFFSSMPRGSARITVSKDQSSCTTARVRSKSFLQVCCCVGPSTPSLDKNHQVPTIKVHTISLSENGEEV
Kind of data set: Antagonist activity at human alpha1A adrenergic receptor expressed in Chem1 cells assessed as decrease in epinephrine-induced calcium mobilization by measuring relative fluorescence unit at 10 uM by fluoforte dye based fluorescence assay relative to epinephrine. It counts as functional, cell-based. On the technique in general: Calcium flux is commonly read through the fluorescence of an indicator in the cells.

Data set [7] concerns Rattus norvegicus. Kind of data set: Toxicity in benign prostatic hyperplasia Sprague-Dawley rat model assessed as effect on testis weight at 10 mg/kg, po qd co-administered with citral for 21 days starting post 8 days of citral alone treatment. The class given is organism-based. To be noted: in vivo.
Data set [8] relates to Rattus norvegicus. Kind of data set: Anti-androgenic activity in benign prostatic hyperplasia Sprague-Dawley rat model assessed as reduction in citral-induced prostate weight at 10 mg/kg, po qd co-administered with citral for 21 days starting post 8 days of citral alone treatment. The class given is functional. Details: scale not given: the % may be the effect or the level left.

For data set [9], the system named is PC-3. Kind of data set: Antiproliferative activity against human PC3 cells assessed as decrease in cell viability after 24 hrs by MTT assay. It counts as functional, cell-based. Conditions: PC-3, 24 h. (In general: Tetrazolium assays rely on reduction of a dye to a coloured formazan, in cell work by metabolically active cells.)
Data set [10] addresses T2, Androgen receptor (Homo sapiens) (UniProt P10275).
T2 sequence (whole entry): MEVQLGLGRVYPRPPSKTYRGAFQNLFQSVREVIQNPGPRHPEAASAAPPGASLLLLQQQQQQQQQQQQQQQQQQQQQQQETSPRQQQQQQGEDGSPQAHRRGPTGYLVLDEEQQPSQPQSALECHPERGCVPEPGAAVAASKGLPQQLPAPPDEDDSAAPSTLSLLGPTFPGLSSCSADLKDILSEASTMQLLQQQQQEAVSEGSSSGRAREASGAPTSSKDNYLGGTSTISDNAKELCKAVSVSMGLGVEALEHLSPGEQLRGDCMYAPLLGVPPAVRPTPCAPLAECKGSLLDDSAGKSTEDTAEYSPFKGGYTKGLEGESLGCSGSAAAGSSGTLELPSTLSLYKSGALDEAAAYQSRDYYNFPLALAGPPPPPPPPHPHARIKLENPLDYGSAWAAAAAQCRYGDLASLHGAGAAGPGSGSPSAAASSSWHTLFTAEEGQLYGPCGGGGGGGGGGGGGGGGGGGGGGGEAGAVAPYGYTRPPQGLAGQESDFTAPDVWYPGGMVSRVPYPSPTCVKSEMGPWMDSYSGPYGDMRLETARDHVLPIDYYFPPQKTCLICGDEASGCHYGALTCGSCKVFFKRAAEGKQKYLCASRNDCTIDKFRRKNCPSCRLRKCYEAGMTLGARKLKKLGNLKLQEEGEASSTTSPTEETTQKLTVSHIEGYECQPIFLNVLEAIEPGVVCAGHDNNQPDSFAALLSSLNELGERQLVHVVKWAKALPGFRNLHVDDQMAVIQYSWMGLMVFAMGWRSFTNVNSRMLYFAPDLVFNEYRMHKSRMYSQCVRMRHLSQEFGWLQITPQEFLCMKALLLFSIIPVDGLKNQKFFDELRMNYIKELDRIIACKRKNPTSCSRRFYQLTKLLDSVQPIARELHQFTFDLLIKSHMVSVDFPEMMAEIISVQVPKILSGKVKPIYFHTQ
Kind of data set: Antagonist activity at human androgen receptor expressed in African green monkey COS7 cells at 7.5 uM after 24 hrs by ARE-dual luciferase reporter gene assay. The class given is cell-based. (In general: Reporter assays use an easily measured gene product as a stand-in for the process of interest.)

The subject of data set [11] is Rattus norvegicus. Kind of data set: Toxicity in benign prostatic hyperplasia Sprague-Dawley rat model assessed as effect on seminal vesicle weight at 10 mg/kg, po qd co-administered with citral for 21 days starting post 8 days of citral alone treatment. It counts as organism-based. To be noted: in vivo.
In data set [12] the target is T2, Androgen receptor (Homo sapiens). Kind of data set: Antagonist activity at androgen receptor in human LNCAP cells assessed as decrease in testosterone-induced PSA expression levels at 10 uM after 24 hrs by Western blot analysis. It counts as cell-based.
Data set [13] concerns DU-145. Kind of data set: Antiproliferative activity against human DU145 cells assessed as decrease in cell viability after 24 hrs by MTT assay. It counts as functional, cell-based. Conditions: DU-145, 24 h.
Data set [14] has as its system Rattus norvegicus. Kind of data set: Anti-androgenic activity in citral-induced benign prostatic hyperplasia Sprague-Dawley rat model assessed as reduction in tissue differentiation into acinar compartments at 10 mg/kg, po qd co-administered with citral for 21 days starting post 8 days of citral alone treatment by hematoxyline and eosin staining based light microscopic analysis. It counts as functional, organism-based.

For data set [15], the target named is T1, Alpha-1A adrenergic receptor (Homo sapiens). Kind of data set: Antagonist activity at human alpha1A adrenergic receptor expressed in Chem1 cells assessed as decrease in epinephrine-induced calcium mobilization by measuring relative fluorescence unit at 1 uM by fluoforte dye based fluorescence assay relative to epinephrine. It counts as functional, cell-based.

Calls of active or inactive are those of the source. No cut-off for these calls is given here. Some results are limits rather than exact numbers.

As for `O=C(CN1CCN(c2ccc([N+](=O)[O-])cc2C(F)(F)F)CC1)N1CCN(c2ccc([N+](=O)[O-])cc2C(F)(F)F)CC1`, the EC50 in data set [1] turned out to be 46.6 µM. Same read-out and setting: the same measure for `O=C(CN1CCN(c2ccccn2)CC1)N1CCN(c2ccc([N+](=O)[O-])cc2)CC1`: 55.2 µM.

For `O=C(N1CCN(c2ccc([N+](=O)[O-])cc2)CC1)N1CCN(c2ccc(C(F)(F)F)cc2[N+](=O)[O-])CC1`, the EC50 in data set [1] is greater than 80 µM. Take `O=C(CN1CCN(c2ccccn2)CC1)N1CCN(c2ncccn2)CC1`: the EC50 in data set [1] came out at 50 µM. For the molecule `O=C(CCl)N1CCN(c2ccc([N+](=O)[O-])cc2)CC1`, the result in data set [2], in data set [3], in data set [10], in data set [12] and in [14] was Active. In addition, the Activity entry in data set [4] was “Non-Toxic”; in [7] it was “Non-Toxic”; in [8] it was 31.6 - 32%; in data set [11] it was “Non-Toxic”. The EC50 in data set [5] is 9.8 µM; in data set [9] it was 65 µM; in [1] it was 9.8 µM; in [13], greater than 70.6 µM. Moreover, in data set [6], the fold change (FC) amounted to 1.6.

As to `O=C(CN1CCN(c2ncccn2)CC1)N1CCN(c2ccc([N+](=O)[O-])cc2)CC1`, the EC50 in [1] was 51.7 µM.

Consider `COc1ccccc1N1CCN(C(=O)CN2CCN(c3ncccn3)CC2)CC1`, for which the EC50 in data set [1] came out at 48.2 µM. `CCOc1ccccc1OCCN[C@H](C)Cc1ccc(OC)c(S(N)(=O)=O)c1`: the fold change (FC) in [15] worked out at 1.6. With `O=C(CCl)N1CCN(c2ccc(C(F)(F)F)cc2[N+](=O)[O-])CC1`, the EC50 in data set [1] worked out at 41.1 µM.

For the molecule `O=C(N1CCN(c2ccc([N+](=O)[O-])cc2)CC1)N1CCN(c2ccc([N+](=O)[O-])cc2)CC1`, the EC50 in [1] came to 72.3 µM.

Take `O=C(N1CCN(c2ccccn2)CC1)N1CCN(c2ccccn2)CC1`: in [1], the EC50 was greater than 80 µM. On to `O=C(N1CCN(c2ccc([N+](=O)[O-])cc2)CC1)N1CCN(c2ccc([N+](=O)[O-])cc2C(F)(F)F)CC1`, for which the EC50 in data set [1] came out at 76.1 µM. Still for that read-out and setting: with `O=C(N1CCN(c2ccc([N+](=O)[O-])cc2)CC1)N1CCN(c2ccccn2)CC1` the figure was 69.5 µM; with `O=C(N1CCN(c2ccccn2)CC1)N1CCN(c2ccc([N+](=O)[O-])cc2C(F)(F)F)CC1`, greater than 80 µM. For `COc1ccccc1N1CCN(C(=O)CCl)CC1`, the half-maximal effective concentration (EC50) in data set [5] was 7.6 µM; in [9] it was greater than 80 µM; in data set [1], 7.6 µM; in data set [13] it was greater than 80 µM. Further, in data set [6], the fold change (FC) worked out at 1.6. In addition, in data set [12], the outcome was Active. As for `COc1ccccc1N1CCN(C(=O)CN2CCN(c3ccccn3)CC2)CC1`, the EC50 in data set [1] is 45.9 µM. Take `COc1ccccc1N1CCN(CC(=O)N2CCN(c3ccccc3OC)CC2)CC1`: the EC50 in data set [1] worked out at 52.2 µM.

In the case of `O=C(CN1CCN(c2ccc(C(F)(F)F)cc2[N+](=O)[O-])CC1)N1CCN(c2ccc(C(F)(F)F)cc2[N+](=O)[O-])CC1`, in data set [1], the concentration giving a half-maximal response (EC50) stood at 48.2 µM. For the molecule `COc1ccccc1N1CCN(C(=O)CN2CCN(c3ccc([N+](=O)[O-])cc3)CC2)CC1`, the EC50 in data set [1] is 63.1 µM. On the same count and under the same terms, the same measure for `O=C(CCl)N1CCN(c2ccc([N+](=O)[O-])cc2C(F)(F)F)CC1`: 53.3 µM; for `O=C(CN1CCN(c2ccc([N+](=O)[O-])cc2)CC1)N1CCN(c2ncccn2)CC1`: 67.9 µM. Still for that read-out and setting: with `O=C(N1CCN(c2ccc([N+](=O)[O-])c(C(F)(F)F)c2)CC1)N1CCN(c2ccccn2)CC1` the figure was 79.8 µM; with `O=C(CN1CCN(c2ncccn2)CC1)N1CCN(c2ncccn2)CC1`, 48.2 µM. Turning to `CC(C)C(=O)Nc1ccc([N+](=O)[O-])c(C(F)(F)F)c1` [FLUTAMIDE], the outcome in data set [2], in data set [3] and in data set [14] was Active. The Activity result in data set [4] was “Non-Toxic”; in [7] it was “Non-Toxic”; in data set [8], 51.8%; in [11] it was “Non-Toxic”. Also, in data set [1], the EC50 was 7 µM. Regarding `O=C(CCl)N1CCN(c2ncccn2)CC1`, in data set [1], the EC50 is 71.3 µM. Turning to `COc1ccccc1N1CCN(CC(=O)N2CCN(c3ncccn3)CC2)CC1`, in data set [1], the EC50 is 47.1 µM.

The term EC50 denotes the concentration that produces a half-maximal response.

These data come from ChEMBL document CHEMBL4190178 (Medchemcomm, 2016).
